Values after ≈ are worked out from the molar mass of the structure shown.
Key:
[1] = system: Trypanosoma brucei brucei; assay: Antitrypanosomal activity against bloodstream form of Trypanosoma brucei brucei […] after 48 hrs by alamar blue assay; format: functional
[2] = system: Trypanosoma brucei brucei; assay: Antitrypanosomal activity against bloodstream form of Trypanosoma brucei brucei s427 after 48 hrs by alamar blue assay; format: functional, organism-based; settings: s427, 48 h
[3] = system: Trypanosoma brucei brucei; assay: Antitrypanosomal activity against TbAT1-deficient Trypanosoma brucei brucei after 48 hrs by alamar blue assay; format: functional, organism-based
[4] = system: Trypanosoma brucei brucei; assay: Antitrypanosomal activity against TbAT1 and HAPT1-deficient Trypanosoma brucei brucei B48 after 48 hrs by alamar blue assay; format: functional, organism-based
[5] = system: Trypanosoma brucei brucei; assay: Resistance factor, ratio of IC50 for TbAT1-deficient bloodstream form of Trypanosoma brucei brucei to IC50 for wild-type bloodstream form of Trypanosoma brucei brucei s427; format: functional
[6] = system: Trypanosoma brucei brucei; assay: Resistance factor, ratio of IC50 for Trypanosoma brucei brucei B48 to IC50 for wild-type bloodstream form of Trypanosoma brucei brucei s427; format: functional
[7] = Trypanosoma brucei, 48 h, read-out: IC50
[8] = Trypanosoma brucei, B48, 48 h, read-out: IC50

Structure (SMILES) | MIC [1] [µM] | other results
CC(C)[C@@H]1N=C(C2CCCCC2)c2cc(NC(=N)N)ccc2N(Cc2ccc(NC(=N)N)cc2)C1=O | 0.78 (≈ 0.381 µg/mL) | –
O=C1Nc2ccccc2C(c2ccccc2)=N[C@H]1Cc1ccccc1 | 6.25 (≈ 2.04 µg/mL) | IC50 [2]: 13800 nM; IC50 [3, 7]: 7840 nM; IC50 [4, 8]: 9230 nM; Ratio IC50 [5]: 0.57; Ratio IC50 [6]: 0.67
O=C1Nc2ccccc2C(c2ccccc2)=N[C@@H]1Cc1ccccc1 | 50 (≈ 16.3 µg/mL) | –
CC(C)[C@H]1N=C(c2ccccc2)c2ccccc2NC1=O | 200 (≈ 55.7 µg/mL) | –
CC(C)[C@@H]1N=C(c2ccccc2)c2ccccc2NC1=O | 100 (≈ 27.8 µg/mL) | –
CC(C)C1=NCC(=O)Nc2ccccc21 | > 400 | –
CC(C)C1=N[C@@H](Cc2ccccc2)C(=O)Nc2ccccc21 | 50 (≈ 14.6 µg/mL) | –
CC(C)[C@@H]1N=C(C2CCCCC2)c2ccccc2NC1=O | 25 (≈ 7.11 µg/mL) | –
CC(C)[C@@H]1N=C(C2CCCCC2)c2cc([N+](=O)[O-])ccc2NC1=O | 12.5 (≈ 4.12 µg/mL) | –
O=C1Nc2ccccc2C(C2CCCCC2)=N[C@H]1Cc1ccccc1 | 12.5 (≈ 4.16 µg/mL) | –
O=C1Nc2ccccc2C(c2ccccn2)=N[C@H]1Cc1ccccc1 | 100 (≈ 32.7 µg/mL) | –
CC(C)[C@@H]1N=C(c2ccccc2)c2ccccc2N(C)C1=O | 100 (≈ 29.2 µg/mL) | –
CC(C)[C@@H]1N=C(c2ccccc2)c2ccccc2N(Cc2ccccc2)C1=O | 200 (≈ 73.7 µg/mL) | –
CC(C)[C@@H]1N=C(c2ccccc2)c2ccccc2N(Cc2ccccc2-c2ccccc2)C1=O | 12.5 (≈ 5.56 µg/mL) | –
CC(C)[C@@H]1N=C(c2ccccc2)c2ccccc2N(Cc2cccc3cccnc23)C1=O | 25 (≈ 10.5 µg/mL) | –
CC(C)[C@H]1N=C(c2ccccc2)c2ccccc2N(C)C1=O | 200 (≈ 58.5 µg/mL) | –
CC(C)[C@H]1N=C(c2ccccc2)c2ccccc2N(Cc2ccccc2)C1=O | 12.5 (≈ 4.61 µg/mL) | –
CN1C(=O)[C@H](Cc2ccccc2)N=C(c2ccccc2)c2ccccc21 | 50 (≈ 17 µg/mL) | –
O=C1[C@H](Cc2ccccc2)N=C(c2ccccc2)c2ccccc2N1Cc1ccccc1 | 6.25 (≈ 2.6 µg/mL) | –
O=C1[C@H](Cc2ccccc2)N=C(c2ccccc2)c2ccccc2N1Cc1ccc(-c2ccccc2)cc1 | 6.25 (≈ 3.08 µg/mL) | –

Structure (SMILES) | MIC [1] [µM] | other results
O=C1[C@H](Cc2ccccc2)N=C(c2ccccc2)c2ccccc2N1Cc1cccc(-c2ccccc2)c1 | 25 (≈ 12.3 µg/mL) | –
O=C1[C@H](Cc2ccccc2)N=C(c2ccccc2)c2ccccc2N1Cc1ccccc1-c1ccccc1 | 6.25 (≈ 3.08 µg/mL) | –
O=C1[C@H](Cc2ccccc2)N=C(c2ccccc2)c2ccccc2N1Cc1cccc2cccnc12 | 25 (≈ 11.7 µg/mL) | –
N#CCN1C(=O)[C@H](Cc2ccccc2)N=C(c2ccccc2)c2ccccc21 | 3.1 (≈ 1.13 µg/mL) | –
O=C(O)CN1C(=O)[C@H](Cc2ccccc2)N=C(c2ccccc2)c2ccccc21 | 50 (≈ 19.2 µg/mL) | –
CN1C(=O)[C@@H](Cc2ccccc2)N=C(c2ccccc2)c2ccccc21 | 400 (≈ 136 µg/mL) | –
O=C1[C@@H](Cc2ccccc2)N=C(c2ccccc2)c2ccccc2N1Cc1ccccc1 | 12.5 (≈ 5.21 µg/mL) | –
O=C1[C@H](COCc2ccccc2)N=C(c2ccccc2)c2ccccc2N1Cc1ccc(-c2ccccc2)cc1 | 25 (≈ 13.1 µg/mL) | –
O=C1[C@H](COCc2ccccc2)N=C(c2ccccc2)c2ccccc2N1Cc1cccc(-c2ccccc2)c1 | 25 (≈ 13.1 µg/mL) | –
O=C1[C@H](COCc2ccccc2)N=C(c2ccccc2)c2ccccc2N1Cc1cccc2cccnc12 | 12.5 (≈ 6.22 µg/mL) | –
CC(C)C1=NCC(=O)N(C)c2ccccc21 | 400 (≈ 86.5 µg/mL) | –
CC(C)C1=N[C@@H](Cc2ccccc2)C(=O)N(C)c2ccccc21 | 25 (≈ 7.66 µg/mL) | –
O=C1[C@H](Cc2ccccc2)N=C(C2CCCCC2)c2ccccc2N1Cc1ccccc1 | 6.25 (≈ 2.64 µg/mL) | –
Nc1ccc(CN2C(=O)[C@H](Cc3ccccc3)N=C(c3ccccc3)c3ccccc32)cc1 | 12.5 (≈ 5.39 µg/mL) | –
Nc1cccc(CN2C(=O)[C@H](Cc3ccccc3)N=C(c3ccccc3)c3ccccc32)c1 | 6.25 (≈ 2.7 µg/mL) | –
Nc1ccccc1CN1C(=O)[C@H](Cc2ccccc2)N=C(c2ccccc2)c2ccccc21 | 6.25 (≈ 2.7 µg/mL) | –
CC(C)[C@@H]1N=C(C2CCCCC2)c2ccccc2N(Cc2ccc(N)cc2)C1=O | 6.25 (≈ 2.43 µg/mL) | –
CC(C)[C@@H]1N=C(C2CCCCC2)c2cc(N)ccc2N(Cc2ccc(N)cc2)C1=O | 6.25 (≈ 2.53 µg/mL) | –
Nc1ccc(CN2C(=O)[C@H](Cc3ccccc3)N=C(C3CCCCC3)c3ccccc32)cc1 | 6.25 (≈ 2.73 µg/mL) | –
Nc1cccc(CN2C(=O)[C@H](Cc3ccccc3)N=C(C3CCCCC3)c3ccccc32)c1 | 6.25 (≈ 2.73 µg/mL) | –

Structure (SMILES) | MIC [1] [µM] | other results
Nc1ccc(CN2C(=O)[C@H](Cc3ccccc3)N=C(c3ccccn3)c3ccccc32)cc1 | 25 (≈ 10.8 µg/mL) | –
CC(C)[C@@H]1N=C(C2CCCCC2)c2cc(N)ccc2NC1=O | 100 (≈ 29.9 µg/mL) | –
N=C(N)Nc1ccc(CN2C(=O)[C@H](Cc3ccccc3)N=C(c3ccccc3)c3ccccc32)cc1 | 0.78 (≈ 0.369 µg/mL) | IC50 [2]: 490 nM; IC50 [3, 7]: 640 nM; IC50 [4, 8]: 1310 nM; Ratio IC50 [5]: 1.29; Ratio IC50 [6]: 2.68
N=C(N)Nc1cccc(CN2C(=O)[C@H](Cc3ccccc3)N=C(c3ccccc3)c3ccccc32)c1 | 0.78 (≈ 0.369 µg/mL) | IC50 [2]: 270 nM; IC50 [3, 7]: 390 nM; IC50 [4, 8]: 940 nM; Ratio IC50 [5]: 1.45; Ratio IC50 [6]: 3.52
N=C(N)Nc1ccccc1CN1C(=O)[C@H](Cc2ccccc2)N=C(c2ccccc2)c2ccccc21 | 1.56 (≈ 0.739 µg/mL) | –
CC(C)[C@@H]1N=C(C2CCCCC2)c2ccccc2N(Cc2ccc(NC(=N)N)cc2)C1=O | 6.25 (≈ 2.7 µg/mL) | –
N=C(N)Nc1ccc(CN2C(=O)[C@H](Cc3ccccc3)N=C(C3CCCCC3)c3ccccc32)cc1 | 0.78 (≈ 0.374 µg/mL) | –
N=C(N)Nc1cccc(CN2C(=O)[C@H](Cc3ccccc3)N=C(C3CCCCC3)c3ccccc32)c1 | 1.56 (≈ 0.748 µg/mL) | IC50 [2]: 330 nM; IC50 [3, 7]: 510 nM; IC50 [4, 8]: 930 nM; Ratio IC50 [5]: 1.53; Ratio IC50 [6]: 2.8
N=C(N)Nc1ccc(CN2C(=O)[C@H](Cc3ccccc3)N=C(c3ccccn3)c3ccccc32)cc1 | 3.13 (≈ 1.49 µg/mL) | –
CC(C)[C@@H]1N=C(C2CCCCC2)c2cc(NC(=N)N)ccc2NC1=O | 1.56 (≈ 0.533 µg/mL) | –
N=C(N)NCCC[C@@H]1N=C(c2ccccc2)c2ccccc2NC1=O | 400 (≈ 134 µg/mL) | –
O=C(CN1C(=O)[C@H](Cc2ccccc2)N=C(c2ccccc2)c2ccccc21)N1CCN(c2ncccn2)CC1 | 12.5 (≈ 6.63 µg/mL) | –
O=C(CN1C(=O)[C@H](Cc2ccccc2)N=C(c2ccccc2)c2ccccc21)N1CCN(c2ccccn2)CC1 | 6.25 (≈ 3.31 µg/mL) | –
O=C(CN1C(=O)[C@H](Cc2ccccc2)N=C(c2ccccc2)c2ccccc21)N1CCNCC1 | 12.5 (≈ 5.66 µg/mL) | –
Nc1nc(N)nc(Nc2ccc([As]3SCC(CO)S3)cc2)n1 (stereo not given) [MELARSOPROL] | – | IC50 [3]: Not Active; IC50 [4]: Not Active
N=C(N)c1ccc(OCCCCCOc2ccc(C(=N)N)cc2)cc1 [PENTAMIDINE] | – | IC50 [3]: Not Active; IC50 [4]: Not Active
O=C1CN=C(c2ccccc2)c2ccccc2N1 [RO-052921] | 400 (≈ 94.5 µg/mL) | –
Cc1ccc(C(=O)Nc2ccc(S(=O)(=O)O)c3cc(S(=O)(=O)O)cc(S(=O)(=O)O)c23)cc1NC(=O)c1cccc(NC(=O)Nc2cccc(C(=O)Nc3cc(C(=O)Nc4ccc(S(=O)(=O)O)c5cc(S(=O)(=O)O)cc(S(=O)(=O)O)c45)ccc3C)c2)c1 [SURAMIN HEXASODIUM] | 0.13 | –
